The record followed here is US8088819B2, “Derivatives of substituted 3-phenyl-1-(phenylthienyl)propan-1-ones and of 3-phenyl-1-(phenylfuranyl) propan-1-ones, preparation and use” (priority 2006, dated 2012).

One data set has as its target T1, hPPARalpha (Homo sapiens, UniProt Q07869).
T1 construct: expressed in transfected cells; host or cells: COS-7 (monkey kidney fibroblasts)
T1 sequence (Q07869 239-466 limits assumed): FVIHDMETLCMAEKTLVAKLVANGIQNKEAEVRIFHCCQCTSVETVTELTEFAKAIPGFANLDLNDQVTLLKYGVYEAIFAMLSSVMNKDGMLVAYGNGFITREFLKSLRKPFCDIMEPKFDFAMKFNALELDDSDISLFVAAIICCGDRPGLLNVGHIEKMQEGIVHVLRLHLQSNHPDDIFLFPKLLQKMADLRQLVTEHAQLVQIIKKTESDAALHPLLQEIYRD
Description: PPAR activation: Gal4-hPPARα chimera luciferase transactivation in COS-7 cells, Method 1. The class given is cell-based. Conditions: COS-7, 24 h; for Emax: maximum percentage response relative to the reference phenofibric acid, read-out: hPPARalpha % max. Summed up:
(§1)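 COS-7 cells transiently transfected with Gal4 DBD–human PPAR LBD (DEF domain) chimeras plus Gal4(RE)_TkpGL3 luciferase reporter (1/10 ratio). Compounds applied 24 h at 37 °C in serum-free medium at doses between 10^−5 and […]; luciferase read after lysis, EC50 derived.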

Another data set deals with T2, hPPARgamma (Homo sapiens, UniProt P37231).
T2 construct: expressed in transfected cells; host or cells: COS-7 (monkey kidney fibroblasts)
T2 sequence (P37231 238-503 limits assumed): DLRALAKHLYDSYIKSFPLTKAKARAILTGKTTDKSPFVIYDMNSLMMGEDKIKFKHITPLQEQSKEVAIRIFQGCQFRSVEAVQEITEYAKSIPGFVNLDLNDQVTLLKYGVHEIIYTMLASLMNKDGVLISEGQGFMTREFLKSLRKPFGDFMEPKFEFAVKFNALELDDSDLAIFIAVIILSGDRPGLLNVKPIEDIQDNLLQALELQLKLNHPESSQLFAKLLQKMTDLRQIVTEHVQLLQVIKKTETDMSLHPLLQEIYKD
As to the kind of experiment: PPAR activation: Gal4-hPPARγ chimera luciferase transactivation in COS-7 cells, Method 1. The class given is cell-based. Conditions: COS-7, 24 h; for Emax: maximum percentage response relative to the reference rosiglitazone, read-out: hPPARgamma % max. Summed up: as §1

For the next data set, the target named is T3, hPPARdelta (Homo sapiens, UniProt Q03181).
T3 construct: expressed in transfected cells; host or cells: COS-7 (monkey kidney fibroblasts)
T3 sequence (Q03181 211-439 limits assumed): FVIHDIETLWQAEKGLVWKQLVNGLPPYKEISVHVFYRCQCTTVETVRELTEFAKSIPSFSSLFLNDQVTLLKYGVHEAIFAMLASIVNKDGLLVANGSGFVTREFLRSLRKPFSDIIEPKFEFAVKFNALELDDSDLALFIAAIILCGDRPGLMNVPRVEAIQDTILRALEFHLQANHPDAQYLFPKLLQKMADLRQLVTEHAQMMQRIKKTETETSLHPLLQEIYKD
As to the kind of experiment: PPAR activation: Gal4-hPPARδ chimera luciferase transactivation in COS-7 cells, Method 1. The class given is cell-based. Conditions: COS-7, 24 h; for Emax: maximum percentage response relative to the reference GW501516, read-out: hPPARdelta % max. The method in brief:
as §1

The EC50 is the concentration needed to bring the measured effect to its halfway point. Read a low EC50 as higher potency in that assay. Usually melting point stands for the temperature, or range, at which the solid turns liquid. Take `CC(C)(Oc1ccc(CCC(=O)c2ccc(-c3ccc(C(F)(F)F)cc3)s2)c(Cl)c1Cl)C(=O)O` [Compound 2, 2-(2,3-dichloro-4-(3-oxo-3-(5-(4-(trifluoromethyl)phenyl)thien-2-yl)propyl)phenoxy)-2-methylpropanoic acid]: the melting point was in the range of 153 to 154 °C. Moreover, at hPPARalpha, the EC50 amounted to 53 nM and the Emax was 43%. On hPPARgamma, the EC50 is 60 nM and the Emax was 11%. At hPPARdelta, the EC50 amounted to 7 nM and the Emax was 91%.

As for `CC(C)(Oc1ccc(CCC(O)c2ccc(-c3ccc(C(F)(F)F)cc3)s2)c(Cl)c1Cl)C(=O)O` (stereo not drawn) [Compound 4, 2-(2,3-dichloro-4-(3-hydroxy-3-(5-(4-(trifluoromethyl)phenyl)thien-2-yl)propyl)phenoxy)-2-methylpropanoic acid], the melting point lay within 54 to 56 °C. For the same molecule, at hPPARalpha, the 50% effective concentration (EC50) was found to be 125 nM and the Emax was 50%. Moreover, on hPPARgamma, the Emax stood at 38%. Also, at hPPARdelta, it took 34 nM to reach a half-maximal effect (EC50) and the Emax amounted to 107%.

Take `CC(C)(Oc1ccc(CCC(OCc2ccccc2)c2ccc(-c3ccc(C(F)(F)F)cc3)s2)c(Cl)c1Cl)C(=O)O` (stereo not drawn) [Compound 7, 2-(4-(3-(benzyloxy)-3-(5-(4-(trifluoromethyl)phenyl)thien-2-yl)propyl)-2,3-dichlorophenoxy)-2-methylpropanoic acid]: the melting point fell in the range of 46 to 48 °C.

`CC(C)(Oc1ccc(CCC(=O)c2cc(-c3ccc(C(F)(F)F)cc3)cs2)c(Cl)c1Cl)C(=O)O` [Compound 11, 2-(2,3-dichloro-4-(3-oxo-3-(4-(4-(trifluoromethyl)phenyl)thien-2-yl)propyl)phenoxy)-2-methylpropanoic acid] showed a melting point of 99 to 101 °C. Also, on hPPARalpha, the EC50 was found to be 288 nM and the Emax worked out at 39%. For the same molecule, on hPPARgamma, it took 1170 nM to reach a half-maximal effect (EC50) and the Emax is 55%. In addition, at hPPARdelta, the EC50 is 3 nM and the Emax amounted to 105%.
